Laboratory results from ChEMBL document CHEMBL1201862, “PubChem BioAssay data set” (2004).
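In this assay, cells in 96-well plates receive the compound at five concentrations for 48 hours. Endpoints are linearly interpolated between the surrounding concentrations. GI50 marks 50% less growth.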 Calls of active or inactive are those of the source. Cut-off read from the data, not from the text of the source: active = GI50 up to about 1.1 µM and inactive = higher.

Tests used:
Test in all cases: NCI-60 cell line screen, 48 h
[1] = system: SNB-75
[2] = system: NCI-H522
[3] = system: A498
[4] = system: T47D
[5] = system: PC-3
[6] = system: Hs-578T
[7] = system: NCI-H460
[8] = system: HL-60
[9] = system: MDA-MB-435
[10] = system: HOP-62
[11] = system: HCC 2998
[12] = system: MDA-N
[13] = system: 786-0
[14] = system: SN12C

| SMILES | GI50 [1] | GI50 [2] | GI50 [3] | GI50 [4] | GI50 [5] | GI50 [6] | GI50 [7] | GI50 [8] | GI50 [9] | GI50 [10] | GI50 [11] | GI50 [12] | GI50 [13] | GI50 [14] |
| --- | --- | --- | --- | --- | --- | --- | --- | --- | --- | --- | --- | --- | --- | --- |
| O=C1OC(c2ccccc2Br)=N/C1=C/c1ccccc1 | 53.5 µM (inactive) | 26 µM (inactive) | > 100 µM (inactive) | > 100 µM (inactive) | > 100 µM (inactive) | 31.3 µM (inactive) | 42.5 µM (inactive) | 39 µM (inactive) | 29.2 µM (inactive) | 21.5 µM (inactive) | 19.1 µM (inactive) | 25.4 µM (inactive) | – | – |
| CCC(Sc1cc(Cl)c(C)cc1S(=O)(=O)Nc1nc(N)nc(N(C)C)n1)C(=O)O (stereo unspecified) | > 10 µM (inactive) | > 10 µM (inactive) | > 10 µM (inactive) | > 10 µM (inactive) | > 10 µM (inactive) | > 10 µM (inactive) | > 10 µM (inactive) | > 10 µM (inactive) | – | > 10 µM (inactive) | > 10 µM (inactive) | > 10 µM (inactive) | > 10 µM (inactive) | > 10 µM (inactive) |
| Cc1nc2ccccc2cc1C[N+]12CN3CN(CN(C3)C1)C2 | 17.9 µM (inactive) | 18.9 µM (inactive) | 22.8 µM (inactive) | 18.7 µM (inactive) | 10.8 µM (inactive) | 35.6 µM (inactive) | 18.2 µM (inactive) | – | 22.2 µM (inactive) | 24.5 µM (inactive) | 17.1 µM (inactive) | 21.8 µM (inactive) | 11.5 µM (inactive) | 18 µM (inactive) |
| CC(=O)N(C)SCC(NC(=O)C(Cc1ccccc1)NC(=O)OCc1ccccc1)C(=O)NC(Cc1ccccc1)C(=O)NC(Cc1cn(C=O)c2ccccc12)C(=O)NC(CCCCNC(=O)OCc1ccccc1)C(=O)NC(C(=O)NC(CSN(C)C(C)=O)C(=O)NO)C(C)OCc1ccccc1 (stereo unspecified) | > 100 µM (inactive) | > 100 µM (inactive) | – | > 100 µM (inactive) | > 100 µM (inactive) | > 100 µM (inactive) | > 100 µM (inactive) | > 100 µM (inactive) | > 100 µM (inactive) | > 100 µM (inactive) | > 100 µM (inactive) | > 100 µM (inactive) | > 100 µM (inactive) | > 100 µM (inactive) |
| C=C(Br)CN(C)CC(=C)Br | > 100 µM (inactive) | > 100 µM (inactive) | > 100 µM (inactive) | > 100 µM (inactive) | > 100 µM (inactive) | > 100 µM (inactive) | > 100 µM (inactive) | > 100 µM (inactive) | > 100 µM (inactive) | > 100 µM (inactive) | – | > 100 µM (inactive) | > 100 µM (inactive) | > 100 µM (inactive) |
| O=C(O)CNC(=O)c1cccc2c(=O)c3ccccc3[nH]c12 | 84.7 µM (inactive) | > 100 µM (inactive) | > 100 µM (inactive) | > 100 µM (inactive) | > 100 µM (inactive) | > 100 µM (inactive) | > 100 µM (inactive) | > 100 µM (inactive) | > 100 µM (inactive) | > 100 µM (inactive) | > 100 µM (inactive) | > 100 µM (inactive) | > 100 µM (inactive) | > 100 µM (inactive) |
| CCC1C(=O)C[C@H]2[C@@H]3C(O)CC4=CC(=O)CC[C@]4(C)[C@H]3CC[C@]12C (stereo partly specified) | > 50 µM (inactive) | > 50 µM (inactive) | > 50 µM (inactive) | > 50 µM (inactive) | > 50 µM (inactive) | > 50 µM (inactive) | > 50 µM (inactive) | > 50 µM (inactive) | > 50 µM (inactive) | > 50 µM (inactive) | > 50 µM (inactive) | – | > 50 µM (inactive) | > 50 µM (inactive) |
| COC(=O)C1(F)C(=O)NC(=O)NC1O (stereo unspecified) | > 65 µM (inactive) | > 100 µM (inactive) | > 100 µM (inactive) | > 100 µM (inactive) | 50.8 µM (inactive) | > 100 µM (inactive) | 50.6 µM (inactive) | 31 µM (inactive) | > 100 µM (inactive) | > 100 µM (inactive) | > 45.9 µM (inactive) | > 100 µM (inactive) | > 100 µM (inactive) | > 100 µM (inactive) |
| COc1cccc(CCn2c(N)c(C#N)c3ccc([N+](=O)[O-])cc3c2=O)c1 | > 46.5 µM (inactive) | – | > 100 µM (inactive) | > 46.5 µM (inactive) | > 46.5 µM (inactive) | 39.9 µM (inactive) | > 46.5 µM (inactive) | 3.78 µM (inactive) | 0.22 µM (active) | > 31.6 µM (inactive) | > 46.5 µM (inactive) | 0.256 µM (active) | > 46.5 µM (inactive) | > 100 µM (inactive) |
| CC1C2CC(C(C3C(=O)C4CC3C(C)(C)C4C)C2=O)C1(C)C (stereo unspecified) | > 100 µM (inactive) | > 100 µM (inactive) | > 100 µM (inactive) | > 100 µM (inactive) | > 100 µM (inactive) | > 100 µM (inactive) | > 100 µM (inactive) | > 100 µM (inactive) | > 100 µM (inactive) | > 100 µM (inactive) | > 100 µM (inactive) | > 100 µM (inactive) | > 100 µM (inactive) | > 100 µM (inactive) |
| CN(C)c1ccc(/C=C/c2ccnc3ccc4ccccc4c23)cc1 | 26.5 µM (inactive) | 17.3 µM (inactive) | 24.8 µM (inactive) | 16.7 µM (inactive) | 92.5 µM (inactive) | 36.6 µM (inactive) | 29.6 µM (inactive) | > 100 µM (inactive) | 24.2 µM (inactive) | 33.4 µM (inactive) | – | 16.3 µM (inactive) | 39.5 µM (inactive) | 74.3 µM (inactive) |
| CC1=CCC2CC1C(C(=O)c1c[nH]c3ccccc13)=NC2(C)C (stereo unspecified) | – | 44.4 µM (inactive) | > 100 µM (inactive) | 29.4 µM (inactive) | 30.8 µM (inactive) | 41.9 µM (inactive) | 52.4 µM (inactive) | 20.8 µM (inactive) | 47.8 µM (inactive) | > 100 µM (inactive) | > 100 µM (inactive) | > 10 µM (inactive) | 81.1 µM (inactive) | 87.9 µM (inactive) |
| O=c1cnn(C/C=C\CO)c(=O)[nH]1 | > 100 µM (inactive) | > 100 µM (inactive) | > 100 µM (inactive) | > 100 µM (inactive) | > 100 µM (inactive) | > 100 µM (inactive) | > 100 µM (inactive) | > 100 µM (inactive) | > 100 µM (inactive) | > 100 µM (inactive) | > 100 µM (inactive) | > 100 µM (inactive) | – | > 100 µM (inactive) |
| CCCCCCOP(=O)(OCCCCCC)C(NC(=O)OCC)(C(F)(F)F)C(F)(F)F | 64.3 µM (inactive) | 28.1 µM (inactive) | > 100 µM (inactive) | 39.5 µM (inactive) | 33.3 µM (inactive) | 51.5 µM (inactive) | 30.3 µM (inactive) | > 100 µM (inactive) | 36.6 µM (inactive) | > 100 µM (inactive) | > 10 µM (inactive) | 36 µM (inactive) | – | 34 µM (inactive) |
| COc1ccc(CCn2ccc(C)n2)c(OC)c1 | 34 µM (inactive) | – | – | 68.9 µM (inactive) | > 100 µM (inactive) | > 100 µM (inactive) | > 100 µM (inactive) | – | > 100 µM (inactive) | > 100 µM (inactive) | – | > 100 µM (inactive) | – | 46 µM (inactive) |
| CSCCC(NC(=O)OCc1ccccc1)NC(=O)OCc1ccccc1 | > 100 µM (inactive) | > 100 µM (inactive) | – | 59.8 µM (inactive) | > 100 µM (inactive) | > 100 µM (inactive) | > 100 µM (inactive) | > 10 µM (inactive) | > 100 µM (inactive) | > 100 µM (inactive) | > 100 µM (inactive) | > 100 µM (inactive) | – | > 100 µM (inactive) |
| C=C(C)COc1ccc2c(c1)CCC1C2CCC2(C)C(=O)/C(=N/O)CC12 (stereo unspecified) | 1.9 µM (inactive) | 3.58 µM (inactive) | 11.1 µM (inactive) | 2.2 µM (inactive) | 2.6 µM (inactive) | 3.67 µM (inactive) | 1.57 µM (inactive) | 1.78 µM (inactive) | 2.27 µM (inactive) | 5.43 µM (inactive) | – | 3.47 µM (inactive) | 2.86 µM (inactive) | 3.13 µM (inactive) |
| O=S(=O)(N/C(=N\O)Nc1ccc(Cl)cc1)c1cc2ccccc2s1 | 12.7 µM (inactive) | 13.8 µM (inactive) | – | 21.9 µM (inactive) | 14.5 µM (inactive) | 18.7 µM (inactive) | 31.8 µM (inactive) | 11.7 µM (inactive) | 16.6 µM (inactive) | 17.7 µM (inactive) | – | 20.9 µM (inactive) | 18.4 µM (inactive) | 18.6 µM (inactive) |
| C[C@]12CC[C@H](OC(=O)Cc3ccc(N(CCCl)CCCl)cc3)CC1=CC[C@@H]1[C@@H]2CC[C@]2(C)C(=O)CC[C@@H]12 | > 100 µM (inactive) | > 100 µM (inactive) | > 100 µM (inactive) | 92.5 µM (inactive) | > 100 µM (inactive) | > 100 µM (inactive) | > 100 µM (inactive) | > 100 µM (inactive) | > 100 µM (inactive) | > 100 µM (inactive) | > 100 µM (inactive) | > 100 µM (inactive) | – | > 100 µM (inactive) |
| COc1cc(C=O)cc(/C=N/c2ccc(S(N)(=O)=O)cc2)c1O | 23.9 µM (inactive) | 21.2 µM (inactive) | 23.8 µM (inactive) | 14.3 µM (inactive) | 2.96 µM (inactive) | 2.82 µM (inactive) | 26.2 µM (inactive) | 25.4 µM (inactive) | 9.2 µM (inactive) | 13.5 µM (inactive) | 19.3 µM (inactive) | 5.6 µM (inactive) | – | 6.65 µM (inactive) |
